What was measured:
[1] = tested on: BE2-M17 (Neuroblastoma); experiment: Bliss excess, mean over the matrix (fraction); higher = more synergy
How it was run: (§1)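 Cell lines in DMEM/F12 or RPMI with 10% FBS were plated in 1536-well plates, held 24 hours at 37°C, 5% CO2, then given two-drug dose matrices for 72 hours (DMSO typically 0.2%). Viability was read by CellTiter-Glo 2.0 luminescence and scaled as inhibition from 0 (vehicle wells) to 1 (blank wells). Combination Emax is the second-highest inhibition in the matrix; Bliss excess is observed combination effect minus expected EA + EB − EA·EB, EA and EB being single-agent effects.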

[2] = tested on: CAL-72 (Osteosarcoma); experiment: as above
How it was run: as §1

[3] = tested on: FTC-133 (Thyroid Gland Carcinoma); experiment: as above
How it was run: as §1

[4] = tested on: KYAE-1 (Esophageal Adenocarcinoma); experiment: as above
How it was run: as §1

[5] = tested on: LS-123 (Colorectal Carcinoma); experiment: as above
How it was run: as §1

[6] = tested on: NCI-H720 (Other Solid Carcinomas); experiment: as above
How it was run: as §1

[7] = tested on: NUGC-4 (Gastric Carcinoma); experiment: as above
How it was run: as §1

[8] = tested on: SNU-449 (Hepatocellular Carcinoma); experiment: as above
How it was run: as §1

[9] = tested on: YAPC (Pancreatic Carcinoma); experiment: as above
How it was run: as §1

[10] = tested on: NCI-H720 (Other Solid Carcinomas); experiment: combination Emax (second highest fraction inhibited in the dose matrix, 72 h); higher = more inhibition; extreme values may be limits of the assay
How it was run: as §1

[11] = tested on: MHH-CALL-2 (B-Lymphoblastic Leukemia); experiment: Bliss excess, mean over the matrix (fraction); higher = more synergy
How it was run: as §1

[12] = tested on: MHH-CALL-2 (B-Lymphoblastic Leukemia); experiment: combination Emax (second highest fraction inhibited in the dose matrix, 72 h); higher = more inhibition; extreme values may be limits of the assay
How it was run: as §1
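For Bliss excess, mean over the matrix in this document: after 72 h of two-drug dosing.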

| SMILES | Bliss excess [1] | Bliss excess [2] | Bliss excess [3] | Bliss excess [4] | Bliss excess [5] | Bliss excess [6] | Bliss excess [7] | Bliss excess [8] | Bliss excess [9] | combination Emax [10] | Bliss excess [11] | combination Emax [12] |
| --- | --- | --- | --- | --- | --- | --- | --- | --- | --- | --- | --- | --- |
| Cc1cc2ncnn2cc1Nc1ncc2c(n1)n(C1CCOCC1)c(=O)n2C [AZD7648] + CCN(CCO)CCCOc1ccc2c(Nc3cc(CC(=O)Nc4cccc(F)c4)[nH]n3)ncnc2c1 [AZD2811] (first compound max 10 µM, 7x7, partner max 1 µM) | 0.01 | 0.0448 | 0.0066 | -0.002 | -0.0172 | 0.0621 | -0.0257 | 0.0117 | 0.0032 | 0.756 |  |  |
| CN(CCO)CC[C@H](CSc1ccccc1)Nc1ccc(S(=O)(=O)NC(=O)c2ccc(N3CCC([C@@H](O)c4ccccc4-c4ccc(Cl)cc4)CC3)cc2)cc1S(=O)(=O)C(F)(F)F [AZD4320] + Cc1cc2ncnn2cc1Nc1ncc2c(n1)n(C1CCOCC1)c(=O)n2C [AZD7648] (first compound max 1 µM, 7x7, partner max 10 µM) | -0.0059 | 0.0278 | -0.0097 | -0.0461 |  |  | -0.0725 | -0.0811 | -0.0465 |  | 0.0839 | 0.516 |
| CN(CCO)CC[C@H](CSc1ccccc1)Nc1ccc(S(=O)(=O)NC(=O)c2ccc(N3CCC([C@@H](O)c4ccccc4-c4ccc(Cl)cc4)CC3)cc2)cc1S(=O)(=O)C(F)(F)F [AZD4320] + CCN(CCO)CCCOc1ccc2c(Nc3cc(CC(=O)Nc4cccc(F)c4)[nH]n3)ncnc2c1 [AZD2811] (first compound max 1 µM, 7x7, partner max 1 µM) | 0.12 | 0.0528 | 0.0384 | -0.0149 |  |  | -0.0407 | -0.0649 | -0.0464 |  | 0.138 | 0.538 |
| N#Cc1cnc(Nc2cc(NC[C@H]3CNCCO3)c(C(F)(F)F)cn2)cn1 [SRA737] + O=c1[nH]cc(F)c(=O)[nH]1 [5-Fluorouracil] (first compound max 10 µM, 7x7, partner max 20 µM) |  | 0.0294 |  | 0.0202 | -0.0135 |  |  | -0.0175 | 0.0062 |  |  |  |
| C[C@@H](c1ccc2nccn2c1)n1nnc2ncc(-c3cnn(C)c3)nc21 [Savolitinib] + CN(CC[C@H](CSC1=CC=CC=C1)NC2=C(C=C(C=C2)S(=O)(=O)NC(=O)C3=CC=C(C=C3)N4CCC(CC4)[C@H](C5=CC=CC=C5C6=CC=C(C=C6)Cl)O)S(=O)(=O)C(F)(F)F)CCO [AZD4320] (first compound max 1 µM, 7x7, partner max 1 µM) | -0.0337 |  | -0.056 |  |  |  | -0.0363 |  |  |  | -0.0252 | 0.454 |
| COc1cc2ncnc(Nc3ccc(F)c(Cl)c3)c2cc1OCCCN1CCOCC1 [Gefitinib] + CC(C)n1c(=O)n(C)c2cnc3cc(F)c(-c4ccc(OCCCN5CCCCC5)nc4)cc3c21 [AZD1390] (first compound max 10 µM, 7x7, partner max 0.3 µM) | -0.049 | -0.0555 | -0.0752 | -0.0421 | -0.0622 |  | -0.0491 | -0.0529 | -0.0233 |  | -0.0419 | 0.0382 |
| N#Cc1cnc(Nc2cc(NC[C@H]3CNCCO3)c(C(F)(F)F)cn2)cn1 [SRA737] + C=CCn1c(=O)c2cnc(Nc3ccc(N4CCN(C)CC4)cc3)nc2n1-c1cccc(C(C)(C)O)n1 [AZD1775] (first compound max 10 µM, partner max 1 µM) |  | 0.0934 |  | 0.0021 | -0.0025 |  |  | 0.0354 | 0.0265 |  |  |  |
| Cc1cc2ncnn2cc1Nc1ncc2c(n1)n(C1CCOCC1)c(=O)n2C [AZD7648] + O=C(c1cc(Cc2n[nH]c(=O)c3ccccc23)ccc1F)N1CCN(C(=O)C2CC2)CC1 [Olaparib] (first compound max 10 µM, 7x7, partner max 10 µM) | 0.0754 | -0.0093 | -0.0306 | -0.0362 | -0.0221 | -0.0244 | -0.049 | -0.0525 | -0.0521 | 0.316 |  |  |
| Cc1cc2ncnn2cc1Nc1ncc2c(n1)n(C1CCOCC1)c(=O)n2C [AZD7648] + COc1cc([C@@H]2c3cc4c(cc3[C@@H](O[C@@H]3O[C@@H]5CO[C@@H](C)O[C@H]5[C@H](O)[C@H]3O)[C@H]3COC(=O)[C@H]23)OCO4)cc(OC)c1O [Etoposide] (first compound max 10 µM, 7x7, partner max 10 µM) |  | 0.0314 |  | 0.0032 | 0.0811 |  |  | 0.0282 | 0.0217 |  |  |  |
| Cc1cc2ncnn2cc1Nc1ncc2c(n1)n(C1CCOCC1)c(=O)n2C [AZD7648] + C=CCn1c(=O)c2cnc(Nc3ccc(N4CCN(C)CC4)cc3)nc2n1-c1cccc(C(C)(C)O)n1 [AZD1775] (first compound max 10 µM, partner max 1 µM) | -0.0837 | -0.0194 | 0.0069 | -0.048 | -0.079 | -0.0899 | -0.0417 | 0.0041 | 0.0325 | 0.601 |  |  |
| N#Cc1cnc(Nc2cc(NC[C@H]3CNCCO3)c(C(F)(F)F)cn2)cn1 [SRA737] + CCc1c2c(nc3ccc(O)cc13)-c1cc3c(c(=O)n1C2)COC(=O)[C@]3(O)CC [SN-38] (first compound max 10 µM, 7x7, partner max 0.3 µM) |  | 0.0489 |  | 0.0142 | -0.0163 |  |  | 0.0341 | -0.041 |  |  |  |
| Cc1cc2ncnn2cc1Nc1ncc2c(n1)n(C1CCOCC1)c(=O)n2C [AZD7648] + C[C@@H]1COCCN1C2=NC(=NC(=C2)C3(CC3)[S@](=N)(=O)C)C4=C5C=CNC5=NC=C4 [AZD6738] (first compound max 10 µM, 7x7, partner max 10 µM) | -0.0073 | 0.0292 | -0.0369 | 0.0399 | -0.0021 | -0.0692 | -0.0673 | 0.0318 | 0.0058 | 0.722 |  |  |
| CN(CCO)CC[C@H](CSc1ccccc1)Nc1ccc(S(=O)(=O)NC(=O)c2ccc(N3CCC([C@@H](O)c4ccccc4-c4ccc(Cl)cc4)CC3)cc2)cc1S(=O)(=O)C(F)(F)F [AZD4320] + CC(=O)O[C@H]1C(=O)[C@@]2(C)[C@H]([C@H](OC(=O)c3ccccc3)[C@]3(O)C[C@H](OC(=O)[C@H](O)[C@@H](NC(=O)c4ccccc4)c4ccccc4)C(C)=C1C3(C)C)[C@]1(OC(C)=O)CO[C@@H]1C[C@@H]2O [Paclitaxel] (first compound max 1 µM, 7x7, partner max 3 µM) |  | 0.19 |  | 0.0811 |  |  |  | -0.0162 | -0.0321 |  |  |  |
| C[C@@H](c1ccc2nccn2c1)n1nnc2ncc(-c3cnn(C)c3)nc21 [Savolitinib] + Cc1c2c(nn1C)CSCc1cc(n(C)n1)CSc1cc(c3ccccc3c1)OCCCc1c(C(=O)O)n(C)c3c-2c(Cl)ccc13 [AZD5991] (first compound max 1 µM, 7x7, partner max 1 µM) | -0.0285 | -0.0077 | -0.0511 | 0.0163 | -0.0234 |  | -0.0348 | -0.0432 | -0.0425 |  | -0.0343 | 0.976 |
| COc1nnc2ccc(N3CCC(c4ccc(OCCN5CCN(C)C(=O)[C@H]5C)cc4)CC3)nn12 [AZD5153] + CN(CC[C@H](CSC1=CC=CC=C1)NC2=C(C=C(C=C2)S(=O)(=O)NC(=O)C3=CC=C(C=C3)N4CCC(CC4)[C@H](C5=CC=CC=C5C6=CC=C(C=C6)Cl)O)S(=O)(=O)C(F)(F)F)CCO [AZD4320] (first compound max 1 µM, 7x7, partner max 1 µM) | 0.0682 |  | 0.112 |  |  |  | 0.0299 |  |  |  | 0.0512 | 0.688 |
| COc1cc2c(cc1OCCCCCOc1cc3c(cc1OC)C(=O)N1C=C(C)C[C@H]1C=N3)N=C[C@@H]1CC(C)=CN1C2=O [SG3199] + O=C(c1cc(Cc2n[nH]c(=O)c3ccccc23)ccc1F)N1CCN(C(=O)C2CC2)CC1 [Olaparib] (first compound max 0.001 µM, 7x7, partner max 10 µM) | 0.0474 | -0.0565 | -0.013 | -0.0195 | -0.0211 | 0.0077 | -0.0134 | -0.0647 | -0.0534 | 0.144 |  |  |
| C[C@@H](c1ccc2nccn2c1)n1nnc2ncc(-c3cnn(C)c3)nc21 [Savolitinib] + CC1(C)CCC(CN2CCN(c3ccc(C(=O)NS(=O)(=O)c4ccc(NCC5CCOCC5)c([N+](=O)[O-])c4)c(Oc4cnc5[nH]ccc5c4)c3)CC2)=C(c2ccc(Cl)cc2)C1 [Venetoclax] (first compound max 1 µM, 7x7, partner max 1 µM) | -0.0656 | -0.02 | -0.0611 | -0.014 | -0.0794 |  | -0.0817 | -0.0358 | -0.0232 |  | -0.0471 | 0.0992 |
| Cc1cc2ncnn2cc1Nc1ncc2c(n1)n(C1CCOCC1)c(=O)n2C [AZD7648] + CN(C)CCCOc1ccc(-c2ccc3ncc4c(c3c2)n(C2CCOCC2)c(=O)n4C)cn1 [AZD0156] (first compound max 10 µM, 7x7, partner max 1 µM) | -0.0026 | -0.0908 | 0.0239 | 0.0007 | 0.0338 | -0.0328 | 0.0034 | -0.0457 | -0.0126 | 0.296 |  |  |
| Cc1nc(Nc2ncc(C(=O)Nc3c(C)cccc3Cl)s2)cc(N2CCN(CCO)CC2)n1 [Dasatinib] + CC(=O)Nc1cccc(-n2c(=O)n(C3CC3)c(=O)c3c(Nc4ccc(I)cc4F)n(C)c(=O)c(C)c32)c1 [Trametinib] (first compound max 2 µM, 7x7, partner max 1 µM) | -0.0087 | -0.0409 | -0.0878 | -0.0114 | 0.0891 |  | 0.007 | -0.0631 | 0.0605 |  | -0.0223 | 0.128 |

Source: the supplement of paper PMC11061612
